A value given as a limit tells only on which side of the number the result lay.

The target in the experiment is T1, human acetyl-CoA carboxylase 2 (ACC2) (Homo sapiens, UniProt O00763).
T1 construct: The cDNA encoding amino acids 144 to 2458 of human acetyl-CoA carboxylase 2; made in house; host or cells: Sf9 insect cells (baculovirus, pFastBac1)
T1 sequence (O00763 144-2458): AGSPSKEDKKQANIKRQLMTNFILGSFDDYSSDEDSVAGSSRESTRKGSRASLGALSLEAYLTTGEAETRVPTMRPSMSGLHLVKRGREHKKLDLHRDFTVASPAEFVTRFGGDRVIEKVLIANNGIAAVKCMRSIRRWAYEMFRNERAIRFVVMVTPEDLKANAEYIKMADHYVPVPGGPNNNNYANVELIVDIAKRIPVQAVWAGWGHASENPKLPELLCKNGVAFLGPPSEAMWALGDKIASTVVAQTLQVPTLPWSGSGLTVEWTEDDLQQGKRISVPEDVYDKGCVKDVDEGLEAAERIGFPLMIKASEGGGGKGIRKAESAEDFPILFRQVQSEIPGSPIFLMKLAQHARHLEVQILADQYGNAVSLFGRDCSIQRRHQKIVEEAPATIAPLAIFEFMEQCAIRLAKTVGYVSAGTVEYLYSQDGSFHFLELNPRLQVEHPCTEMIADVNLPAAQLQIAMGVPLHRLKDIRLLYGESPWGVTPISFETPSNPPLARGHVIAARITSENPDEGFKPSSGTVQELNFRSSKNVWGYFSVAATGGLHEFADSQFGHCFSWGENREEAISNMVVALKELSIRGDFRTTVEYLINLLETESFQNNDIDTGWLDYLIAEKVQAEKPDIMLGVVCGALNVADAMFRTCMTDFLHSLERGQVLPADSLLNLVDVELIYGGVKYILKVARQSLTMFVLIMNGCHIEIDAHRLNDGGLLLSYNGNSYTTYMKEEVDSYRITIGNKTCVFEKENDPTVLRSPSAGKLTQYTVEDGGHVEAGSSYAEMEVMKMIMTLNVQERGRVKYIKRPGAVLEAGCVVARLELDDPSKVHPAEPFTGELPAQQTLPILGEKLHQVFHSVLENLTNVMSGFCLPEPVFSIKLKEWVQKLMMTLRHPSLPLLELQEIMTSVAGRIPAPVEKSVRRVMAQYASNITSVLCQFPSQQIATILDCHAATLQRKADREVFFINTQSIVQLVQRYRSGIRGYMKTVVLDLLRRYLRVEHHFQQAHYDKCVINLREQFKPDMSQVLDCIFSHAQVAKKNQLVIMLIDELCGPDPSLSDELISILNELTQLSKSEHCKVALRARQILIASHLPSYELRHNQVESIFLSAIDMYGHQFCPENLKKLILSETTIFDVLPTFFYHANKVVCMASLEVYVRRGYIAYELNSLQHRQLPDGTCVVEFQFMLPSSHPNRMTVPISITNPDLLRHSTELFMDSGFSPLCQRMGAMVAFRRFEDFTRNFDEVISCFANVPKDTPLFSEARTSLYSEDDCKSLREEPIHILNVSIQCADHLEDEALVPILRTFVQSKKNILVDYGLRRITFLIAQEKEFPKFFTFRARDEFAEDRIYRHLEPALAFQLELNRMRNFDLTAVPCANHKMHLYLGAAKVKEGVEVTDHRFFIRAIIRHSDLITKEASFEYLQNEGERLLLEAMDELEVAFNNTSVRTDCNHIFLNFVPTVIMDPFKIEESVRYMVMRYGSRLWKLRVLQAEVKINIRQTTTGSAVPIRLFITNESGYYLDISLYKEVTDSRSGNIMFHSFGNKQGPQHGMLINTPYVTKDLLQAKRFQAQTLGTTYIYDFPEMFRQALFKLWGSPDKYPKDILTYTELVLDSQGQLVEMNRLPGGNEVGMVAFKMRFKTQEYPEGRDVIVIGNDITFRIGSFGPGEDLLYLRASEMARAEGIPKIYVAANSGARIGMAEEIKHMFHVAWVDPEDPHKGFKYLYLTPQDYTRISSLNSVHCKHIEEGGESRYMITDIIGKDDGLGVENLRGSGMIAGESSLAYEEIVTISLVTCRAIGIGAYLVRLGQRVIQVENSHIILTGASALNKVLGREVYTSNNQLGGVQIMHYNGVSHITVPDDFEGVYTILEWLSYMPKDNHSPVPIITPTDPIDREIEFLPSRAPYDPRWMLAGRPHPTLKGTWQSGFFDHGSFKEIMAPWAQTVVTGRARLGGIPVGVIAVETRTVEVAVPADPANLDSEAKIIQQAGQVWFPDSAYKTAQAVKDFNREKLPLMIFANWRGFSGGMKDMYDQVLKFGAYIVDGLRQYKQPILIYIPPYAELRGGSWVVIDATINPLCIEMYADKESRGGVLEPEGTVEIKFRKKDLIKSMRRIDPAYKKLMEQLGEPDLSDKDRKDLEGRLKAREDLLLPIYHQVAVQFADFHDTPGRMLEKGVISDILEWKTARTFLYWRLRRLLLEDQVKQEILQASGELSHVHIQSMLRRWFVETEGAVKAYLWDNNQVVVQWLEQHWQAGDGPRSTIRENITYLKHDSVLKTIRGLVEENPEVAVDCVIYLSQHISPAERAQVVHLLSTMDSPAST
The experiment is described as follows: Acetyl-CoA carboxylase enzyme assay (malonyl-CoA formation by LC/MS/MS). Type of experiment: biochemical. The note with it: recombinant human ACC2 (aa 144-2458); read-out: IC50 ACC2. In outline: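 Malonyl-CoA formation was read by LC/MS/MS MRM against a [13C3]-malonyl-CoA internal standard, after acetic acid quench. The enzyme was baculovirus/Sf9-expressed human ACC2 residues 144–2458, given 15 minutes room-temperature compound preincubation in HEPES pH 7.5 buffer with MgCl2, citrate and DTT. Substrate solution held 50 μM acetyl-CoA, 120 μM ATP and 2 mM KHCO3.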
For `C[C@H]1COCCN1C(=O)[C@H]1CC[C@H](NS(=O)(=O)c2ccc3c(Cl)c(-c4ccccc4)[nH]c3c2)CC1` [Example 467, 3-chloro-N-((1S,4r)-4-((S)-3-methylmorpholine-4-carbonyl)cyclohexyl)-2-phenyl-1H-indole-6-sulfonamide], the IC50 (in general, the point on the concentration scale where inhibition reaches its midpoint) was below 0.01 µM.
Under `O=C([C@H]1CC[C@H](NS(=O)(=O)c2ccc3c(c2)CCC3)CC1)N1CCNC[C@@H]1c1ccccc1` [Example 245, N-((1S,4r)-4-((S)-2-phenylpiperazine-1-carbonyl)cyclohexyl)-2,3-dihydro-1H-indene-5-sulfonamide] stands 0.035 µM; under `C[C@@H](NC(=O)[C@H]1CC[C@H](NS(=O)(=O)c2ccc3c(c2)OCO3)CC1)c1ccc(F)cc1` [Example 661, (1r,4R)-4-(benzo[d][1,3]dioxole-5-sulfonamido)-N-((R)-1-(4-fluorophenyl)ethyl)cyclohexanecarboxamide], 0.733 µM; under `CC1CCc2ccc(S(=O)(=O)N[C@H]3CC[C@H](C(=O)N[C@H](C)c4ccc(F)cc4)CC3)cc2N1` (stereo partly drawn) [Example 168, (1r,4R)-N-((R)-1-(4-fluorophenyl)ethyl)-4-(2-methyl-1,2,3,4-tetrahydroquinoline-7-sulfonamido)cyclohexanecarboxamide], 0.04 µM.
Regarding `C[C@@H](NC(=O)[C@H]1CC[C@H](NS(=O)(=O)c2cnc3c(c2)N(C(=O)COCc2ccccc2)CCN3)CC1)c1ccc(F)cc1` [Example 233, (1r,4R)-4-(1-(2-(benzyloxy)acetyl)-1,2,3,4-tetrahydropyrido[3,2-b]pyrazine-7-sulfonamido)-N-((R)-1-(4-fluorophenyl)ethyl)cyclohexanecarboxamide], the IC50 came out at 0.965 µM.
Under `Cn1c(-c2ccc(CO)cc2)cc2ccc(S(=O)(=O)N[C@H]3CC[C@H](C(=O)N4CCN[C@H](C(F)(F)F)C4)CC3)cc21` [Example 337, 2-(4-(hydroxymethyl)phenyl)-1-methyl-N-((1S,4r)-4-((S)-3-(trifluoromethyl)piperazine-1-carbonyl)cyclohexyl)-1H-indole-6-sulfonamide] stands 0.02 µM; under `Cc1cn(C)c2ncc(S(=O)(=O)N[C@H]3CC[C@H](C(=O)N[C@H](C)c4ccc(F)cc4)CC3)cc12` [Example 17], 0.065 µM; under `C[C@H]1COCCN1C(=O)[C@H]1CC[C@H](NS(=O)(=O)c2ccc3c(Cl)c(-c4ccc(CCC(=O)O)cc4)n(C)c3c2)CC1` [Example 428, 3-(4-(3-chloro-1-methyl-6-(N-((1S,4r)-4-((S)-3-methylmorpholine-4-carbonyl)cyclohexyl)sulfamoyl)-1H-indol-2-yl)phenyl)propanoic acid], below 0.01 µM.
On to `COCCOc1ccc(-c2cc3ccc(S(=O)(=O)N[C@H]4CC[C@H](C(=O)N[C@H](C)C(F)(F)F)CC4)cc3n2C)cc1` [Example 453, (1r,4R)-4-(2-(4-(2-methoxyethoxy)phenyl)-1-methyl-1H-indole-6-sulfonamido)-N-((R)-1,1,1-trifluoropropan-2-yl)cyclohexanecarboxamide], for which the IC50 was 0.165 µM.
Turning to `CC(C)N1CCNc2ncc(S(=O)(=O)N[C@H]3CC[C@H](C(=O)N[C@H](C)c4ccc(F)cc4)CC3)cc21` [Example 141, (1r,4R)-N-((R)-1-(4-fluorophenyl)ethyl)-4-(1-isopropyl-1,2,3,4-tetrahydropyrido[3,2-b]pyrazine-7-sulfonamido)cyclohexanecarboxamide], the IC50 was found to be 0.579 µM.
Then `C[C@@H](NC(=O)[C@H]1CC[C@H](NS(=O)(=O)c2ccc3[nH]c(-c4ccc(CN5CCN(C)CC5)cc4)nc3c2)CC1)c1ccccc1` [Example 576, (1r,4R)-4-(2-(4-((4-methylpiperazin-1-yl)methyl)phenyl)-1H-benzo[d]imidazole-5-sulfonamido)-N-((R)-1-phenylethyl)cyclohexanecarboxamide], with below 0.01 µM; and `O=S(=O)(N[C@H]1CC[C@H](c2nnc(C3CCCCC3)o2)CC1)c1ccc2c(c1)CNCC2` [Example 685, N-((1r,4r)-4-(5-cyclohexyl-1,3,4-oxadiazol-2-yl)cyclohexyl)-1,2,3,4-tetrahydroisoquinoline-7-sulfonamide], with above 35 µM.
Then `CCOC(=O)CCc1c(Cl)c2ccc(S(=O)(=O)N[C@H]3CC[C@H](C(=O)N4CCCC4c4ccc(F)cc4)CC3)cc2n1C` (some centres unmarked) [Example 371, ethyl 3-(3-chloro-6-(N-((1r,4r)-4-(2-(4-fluorophenyl)pyrrolidine-1-carbonyl)cyclohexyl)sulfamoyl)-1-methyl-1H-indol-2-yl)propanoate], with 0.115 µM; and `CC[C@H]1CCc2cc(S(=O)(=O)N[C@H]3CC[C@H](C(=O)N[C@H](C)c4ccc(F)cc4)CC3)ccc2N1` [Example 170, (1r,4R)-4-((S)-2-ethyl-1,2,3,4-tetrahydroquinoline-6-sulfonamido)-N-((R)-1-(4-fluorophenyl)ethyl)cyclohexanecarboxamide], with 0.09 µM; and `CCOC(=O)CCc1cn(C)c2ccc(S(=O)(=O)N[C@H]3CC[C@H](C(=O)N[C@H](C)c4ccc(F)cc4)CC3)cc12` [Example 487], with 0.091 µM.
Then `Cn1c(-c2ccccc2)cc2ccc(S(=O)(=O)N[C@H]3CC[C@H](C(=O)N4CCC[C@H](C(C)(C)O)C4)CC3)cc21` [Example 404, N-((1S,4r)-4-((S)-3-(2-hydroxypropan-2-yl)piperldine-1-carbonyl)cyclohexyl)-1-methyl-2-phenyl-1H-indole-6-sulfonamide], with below 0.01 µM.
Take `O=S(=O)(Nc1ccc(-c2nnc(C3CCCCC3)o2)cc1)c1ccc2nc(-c3ccccc3)[nH]c2c1` [Example 519, N-(4-(5-cyclohexyl-1,3,4-oxadiazol-2-yl)phenyl)-2-phenyl-1H-benzo[d]imidazole-6-sulfonamide]: the IC50 was 32 µM.
As to `O=C(NC1CCCc2ccccc21)[C@H]1CC[C@H](NS(=O)(=O)c2ccc3[nH]c(-c4ccccc4)nc3c2)CC1` (some centres unmarked) [Example 636, (1r,4r)-4-(2-phenyl-1H-benzo[d]imidazole-5-sulfonamido)-N-(1,2,3,4-tetrahydronaphthalen-1-yl)cyclohexanecarboxamide], the IC50 was found to be 1.72 µM.
Consider `Cc1ccccc1-c1cc2ccc(S(=O)(=O)N[C@H]3CC[C@H](C(=O)N4CCN[C@H](C(F)(F)F)C4)CC3)cc2[nH]1` [Example 342, 2-o-tolyl-N-((1S,4r)-4-((S)-3-(trifluoromethyl)piperazine-1-carbonyl)cyclohexyl)-1H-indole-6-sulfonamide], for which the IC50 came to 0.135 µM.
With `C[C@@H](NC(=O)C1CCC(NS(=O)(=O)c2ccc3[nH]c(-c4ccccc4)nc3c2)CC1)c1ccccc1` (stereo partly drawn) [Example 580, (1r,4S)-4-(2-phenyl-1H-benzo[d]imidazole-5-sulfonamido)-N-((S)-1-phenylethyl)cyclohexanecarboxamide], the half-maximal inhibitory concentration (IC50) amounted to 1.75 µM.
Then `Cn1c(-c2ccccc2)cc2cc(S(=O)(=O)N[C@H]3CC[C@H](C(=O)N4CC(C(=O)O)CCC4c4ccccc4)CC3)ccc21` (some centres unmarked) [Example 90, 1-((1r,4r)-4-(1-methyl-2-phenyl-1H-indole-5-sulfonamido)cyclohexanecarbonyl)-6-phenylpiperidine-3-carboxylic acid], with 0.26 µM.
Then `CC(C)N1CCN(C(C)C)c2ncc(S(=O)(=O)N[C@H]3CC[C@H](C(=O)N[C@H](C)c4ccc(F)cc4)CC3)cc21` [Example 143, (1r,4R)-4-(1,4-diisopropyl-1,2,3,4-tetrahydropyrido[3,2-b]pyrazine-7-sulfonamido)-N-((R)-1-(4-fluorophenyl)ethyl)cyclohexanecarboxamide], with 0.325 µM; and `CC(C)OC(=O)c1ccc(NS(=O)(=O)c2ccc3nc(-c4ccc(S(C)(=O)=O)cc4)[nH]c3c2)cc1` [Example 514, isopropyl 4-(2-(4-(methylsulfonyl)phenyl)-1H-benzo[d]imidazole-6-sulfonamido)benzoate], with 0.838 µM; and `O=C(NC1CCCCC1)[C@H]1CC[C@H](NS(=O)(=O)c2ccc3[nH]c(-c4ccccc4)nc3c2)CC1` [Example 632, (1r,4r)-N-cyclohexyl-4-(2-phenyl-1H-benzo[d]imidazole-5-sulfonamido)cyclohexanecarboxamide], with 0.145 µM.
Turning to `Cc1cc(-c2ccc3cc(S(=O)(=O)N[C@H]4CC[C@H](C(=O)NC(c5ccccc5)C(C)(C)O)CC4)ccc3n2)cc(C)n1` (some centres unmarked) [Example 253, (1r,4r)-4-(2-(2,6-dimethylpyridin-4-yl)quinoline-6-sulfonamido)-N-(2-hydroxy-2-methyl-1-phenylpropyl)cyclohexanecarboxamide], the IC50 stood at 0.02 µM.
Then `O=C(Nc1cccnc1)[C@H]1CC[C@H](NS(=O)(=O)c2ccc3[nH]c(-c4ccccc4)nc3c2)CC1` [Example 649, (1r,4r)-4-(2-phenyl-1H-benzo[d]imidazole-5-sulfonamido)-N-(pyridin-3-yl)cyclohexanecarboxamide], with 0.387 µM; and `COCc1ccc(-c2cc3ccc(S(=O)(=O)N[C@H]4CC[C@H](C(=O)N5CCNC(C(F)(F)F)C5)CC4)cc3n2C)cc1` (some centres unmarked) [Example 339, 2-(4-(methoxymethyl)phenyl)-1-methyl-N-((1r,4r)-4-(3-(trifluoromethyl)piperazine-1-carbonyl)cyclohexyl)-1H-indole-6-sulfonamide], with 0.03 µM; and `O=C(OCc1ccccc1)N1CCN(C(=O)[C@H]2CC[C@H](NS(=O)(=O)c3cnc4c(c3)NCCN4)CC2)C(c2ccccc2)C1` (some centres unmarked) [Example 181, benzyl 3-phenyl-4-((1r,4r)-4-(1,2,3,4-tetrahydropyrido[3,2-b]pyrazine-7-sulfonamido)cyclohexanecarbonyl)piperazine-1-carboxylate], with 0.115 µM.
Then `O=C([C@H]1CC[C@H](NS(=O)(=O)c2ccc3c(c2)NC(C(F)(F)F)CC3)CC1)N1CCNCC1c1ccccc1` (some centres unmarked) [Example 187, N-((1r,4r)-4-(2-phenylpiperazine-1-carbonyl)cyclohexyl)-2-(trifluoromethyl)-1,2,3,4-tetrahydroquinoline-7-sulfonamide], with 0.245 µM.
